Assay results reported in PubChem BioAssay AID1259407 (Chemical Carcinogenesis Research Information System (CCRIS), 2018).
The source made the active and inactive calls. No rule for the calls is given here.

System: CCRIS mutagenicity, Ames/micronucleus/aberration tests
Test: CCRIS mutagenicity studies
[1] = Test System: AMES SALMONELLA TYPHIMURIUM, Strain/Indicator: TA97, Metabolic Activation: NONE, Method: PREINCUBATION
[2] = Test System: AMES SALMONELLA TYPHIMURIUM, Strain/Indicator: TA100, Metabolic Activation: NONE, Method: PREINCUBATION
[3] = Test System: AMES SALMONELLA TYPHIMURIUM, Strain/Indicator: TA98, Metabolic Activation: NONE, Method: PREINCUBATION
[4] = Test System: AMES SALMONELLA TYPHIMURIUM, Strain/Indicator: TA100, Metabolic Activation: NONE, Method: STANDARD PLATE

## O.O.O.O=C([O-])COc1ccccc1.O=C([O-])COc1ccccc1.[Cu+2]
[1]
  mutagenic call: inactive; negative
Test System: AMES SALMONELLA TYPHIMURIUM, Strain/Indicator: TA97, Metabolic Activation: RAT, LIVER, S-9, AROCLOR 1254, Method: PREINCUBATION
  mutagenic call: inactive; negative
[2]
  mutagenic call: inactive; negative
Test System: AMES SALMONELLA TYPHIMURIUM, Strain/Indicator: TA100, Metabolic Activation: RAT, LIVER, S-9, AROCLOR 1254, Method: PREINCUBATION
  mutagenic call: inactive; negative
Test System: AMES SALMONELLA TYPHIMURIUM, Strain/Indicator: TA102, Metabolic Activation: NONE, Method: PREINCUBATION
  mutagenic call: inactive; negative
Test System: AMES SALMONELLA TYPHIMURIUM, Strain/Indicator: TA102, Metabolic Activation: RAT, LIVER, S-9, AROCLOR 1254, Method: PREINCUBATION
  mutagenic call: inactive; negative

## N[C@@H](CS)C(=O)NCC(=O)O
Test System: AMES SALMONELLA TYPHIMURIUM, Strain/Indicator: TA102, Metabolic Activation: NONE, Method: STANDARD PLATE
  mutagenic call: active; positive

## Cc1ccc2cc([N+](=O)[O-])ccc2c1
[3]
  mutagenic call: active; positive

## CC(=O)O[C@H]1[C@@]2(O)CC(C)(C)CC2=C(C=O)[C@@]2(C=O)C[C@@]12C
Test System: AMES SALMONELLA TYPHIMURIUM, Strain/Indicator: TA98, Metabolic Activation: NONE, Method: STANDARD PLATE
  mutagenic call: inactive; negative
[4]
  mutagenic call: active; positive
Test System: AMES SALMONELLA TYPHIMURIUM, Strain/Indicator: TA2637, Metabolic Activation: NONE, Method: STANDARD PLATE
  mutagenic call: inactive; negative

## COP(=O)(OC)OC=C(Cl)Cl
End Point: IN VITRO CHROMOSOMAL ABERRATIONS, Test System: CHO CELLS, Metabolic Activation: NONE
  mutagenic call: active; positive
End Point: IN VITRO CHROMOSOMAL ABERRATIONS, Test System: CHO CELLS, Metabolic Activation: RAT, LIVER, S-9, AROCLOR 1254
  mutagenic call: active; positive
End Point: In vivo micronucleus, Test System: Erythrocytes, Species: Mouse, Strain/Sex: Males and females (Strain not identified by DPR), Route: Intraperitoneal
  mutagenic call: inactive; negative
Test System: AMES SALMONELLA TYPHIMURIUM, Strain/Indicator: TA98, Metabolic Activation: HAMSTER, LIVER, S-9, AROCLOR 1254 (30%), Method: PREINCUBATION
  mutagenic call: inactive; negative
[3]
  mutagenic call: inactive; negative
Test System: AMES SALMONELLA TYPHIMURIUM, Strain/Indicator: TA98, Metabolic Activation: RAT, LIVER, S-9, AROCLOR 1254 (30%), Method: PREINCUBATION
  mutagenic call: inactive; negative
Test System: AMES SALMONELLA TYPHIMURIUM, Strain/Indicator: TA100, Metabolic Activation: HAMSTER, LIVER, S-9, AROCLOR 1254 (30%), Method: PREINCUBATION
  mutagenic call: active; positive
[2]
  mutagenic call: active; positive
Test System: AMES SALMONELLA TYPHIMURIUM, Strain/Indicator: TA100, Metabolic Activation: RAT, LIVER, S-9, AROCLOR 1254 (30%), Method: PREINCUBATION
  mutagenic call: active; positive
Test System: AMES SALMONELLA TYPHIMURIUM, Strain/Indicator: TA100, Metabolic Activation: S-9, Method: STANDARD PLATE
  mutagenic call: active; positive
Test System: CHINESE HAMSTER OVARY, Strain/Indicator: CHO-K1-BH4 (HGPRT)/6-THIOGUANINE, Metabolic Activation: NONE
  mutagenic call: active; positive
Test System: CHINESE HAMSTER OVARY, Strain/Indicator: CHO-K1-BH4 (HGPRT)/6-THIOGUANINE, Metabolic Activation: S-9
  mutagenic call: active; positive
Test System: CHINESE HAMSTER V-79, Strain/Indicator: V-79/OUABAIN, Metabolic Activation: NONE
  mutagenic call: inactive; negative
Test System: E. COLI, Strain/Indicator: WP2, Metabolic Activation: NONE, Method: FLUCTUATION
  mutagenic call: active; positive
Test System: E. COLI, Strain/Indicator: WP2, Metabolic Activation: NONE, Method: PREINCUBATION
  mutagenic call: active; positive
Test System: E. COLI, Strain/Indicator: WP2, Metabolic Activation: NONE, Method: STANDARD PLATE
  mutagenic call: active; positive
Test System: E. COLI, Strain/Indicator: WP2, Metabolic Activation: RAT, LIVER, S-9, AROCLOR 1254, Method: STANDARD PLATE
  mutagenic call: active; positive
Test System: E. COLI, Strain/Indicator: WP2 UVRA, Metabolic Activation: NONE, Method: FLUCTUATION
  mutagenic call: active; positive
Test System: E. COLI, Strain/Indicator: WP2 UVRA, Metabolic Activation: NONE, Method: PREINCUBATION
  mutagenic call: active; positive
Test System: E. COLI, Strain/Indicator: WP2 UVRA, Metabolic Activation: NONE, Method: STANDARD PLATE
  mutagenic call: active; positive
Test System: MOUSE LYMPHOMA, Strain/Indicator: L5178Y (TK+/TK-), Metabolic Activation: NONE, Method: SUSPENSION/PLATE
  mutagenic call: active; positive
Test System: Mouse lymphoma, Strain/Indicator: L5178Y (TK+/TK-), Metabolic Activation: None
  mutagenic call: active; positive
Test System: Mouse lymphoma, Strain/Indicator: L5178Y (TK+/TK-), Metabolic Activation: Rat, Liver, S-9
  mutagenic call: active; positive
Test System: UDS HUMAN CELLS, Strain/Indicator: EUE LINE/THY INCORP, Metabolic Activation: NONE, Method: AUTORADIOGRAPHY
  mutagenic call: active; positive
Test System: UDS MOUSE FORESTOMACH EPITHELIUM, Strain/Indicator: THY INCORP, Metabolic Activation: NONE, Method: AUTORADIOGRAPHY
  mutagenic call: inactive; negative
Test System: UDS RAT HEPATOCYTES, Strain/Indicator: BROMODEOXYURIDINE INCORP, Metabolic Activation: NONE, Method: FLOW CYTOMETRIC ANALYSIS
  mutagenic call: inactive; negative
Test System: UDS RAT HEPATOCYTES, Strain/Indicator: THY INCORP, Metabolic Activation: NONE, Method: AUTORADIOGRAPHY
  mutagenic call: inactive; negative

## O=C(OCC(COC(=O)c1ccccc1)(COC(=O)c1ccccc1)COC(=O)c1ccccc1)c1ccccc1
Test System: AMES SALMONELLA TYPHIMURIUM, Strain/Indicator: TA97, Metabolic Activation: HAMSTER, LIVER, S-9, AROCLOR 1254 (10 OR 30%), Method: PREINCUBATION
  mutagenic call: inactive; negative
[1]
  mutagenic call: inactive; negative
Test System: AMES SALMONELLA TYPHIMURIUM, Strain/Indicator: TA97, Metabolic Activation: RAT, LIVER, S-9, AROCLOR 1254 (10 OR 30%), Method: PREINCUBATION
  mutagenic call: inactive; negative
Test System: AMES SALMONELLA TYPHIMURIUM, Strain/Indicator: TA98, Metabolic Activation: HAMSTER, LIVER, S-9, AROCLOR 1254 (10 OR 30%), Method: PREINCUBATION
  mutagenic call: inactive; negative
[3]
  mutagenic call: inactive; negative
Test System: AMES SALMONELLA TYPHIMURIUM, Strain/Indicator: TA98, Metabolic Activation: RAT, LIVER, S-9, AROCLOR 1254 (10 OR 30%), Method: PREINCUBATION
  mutagenic call: inactive; negative
Test System: AMES SALMONELLA TYPHIMURIUM, Strain/Indicator: TA100, Metabolic Activation: HAMSTER, LIVER, S-9, AROCLOR 1254 (10 OR 30%), Method: PREINCUBATION
  mutagenic call: inactive; negative
[2]
  mutagenic call: inactive; negative
Test System: AMES SALMONELLA TYPHIMURIUM, Strain/Indicator: TA100, Metabolic Activation: RAT, LIVER, S-9, AROCLOR 1254 (10 OR 30%), Method: PREINCUBATION
  mutagenic call: inactive; negative
Test System: AMES SALMONELLA TYPHIMURIUM, Strain/Indicator: TA1535, Metabolic Activation: HAMSTER, LIVER, S-9, AROCLOR 1254 (10 OR 30%), Method: PREINCUBATION
  mutagenic call: inactive; negative
Test System: AMES SALMONELLA TYPHIMURIUM, Strain/Indicator: TA1535, Metabolic Activation: NONE, Method: PREINCUBATION
  mutagenic call: inactive; negative
Test System: AMES SALMONELLA TYPHIMURIUM, Strain/Indicator: TA1535, Metabolic Activation: RAT, LIVER, S-9, AROCLOR 1254 (10 OR 30%), Method: PREINCUBATION
  mutagenic call: inactive; negative
Test System: AMES SALMONELLA TYPHIMURIUM, Strain/Indicator: TA1537, Metabolic Activation: HAMSTER, LIVER, S-9, AROCLOR 1254 (30%), Method: PREINCUBATION
  mutagenic call: inactive; negative
Test System: AMES SALMONELLA TYPHIMURIUM, Strain/Indicator: TA1537, Metabolic Activation: NONE, Method: PREINCUBATION
  mutagenic call: inactive; negative
Test System: AMES SALMONELLA TYPHIMURIUM, Strain/Indicator: TA1537, Metabolic Activation: RAT, LIVER, S-9, AROCLOR 1254 (30%), Method: PREINCUBATION
  mutagenic call: inactive; negative

## COS(=O)(=O)c1ccccc1
End Point: IN VITRO MICRONUCLEUS, Test System: MOUSE LYMPHOMA L5178Y CELLS, Metabolic Activation: NONE
  mutagenic call: active; positive
End Point: IN VITRO MICRONUCLEUS, Test System: MOUSE LYMPHOMA L5178Y CELLS, Metabolic Activation: RAT, LIVER, S-9
  mutagenic call: active; positive
End Point: In vitro micronucleus, Test System: Chinese Hamster Ovary (CHO-WBL) cells, Metabolic Activation: None
  mutagenic call: active; positive (p<0.05)
[4]
  mutagenic call: inactive; negative; response reported as weakly positive
Test System: AMES SALMONELLA TYPHIMURIUM, Strain/Indicator: TA100, Metabolic Activation: RAT, LIVER, S-9, Method: STANDARD PLATE
  mutagenic call: active; positive

## [N-]=[N+]=NCCO
Test System: AMES SALMONELLA TYPHIMURIUM, Strain/Indicator: TA1535, Metabolic Activation: NONE, Method: STANDARD PLATE
  mutagenic call: active; positive
